One data set has as its target EGFR^WT (Homo sapiens, UniProt P00533). Nature of the data set: In vitro EGFR^WT kinase inhibitory assay. The class given is biochemical.
Another data set deals with MCF-7. Nature of the data set: MTT cytotoxicity assay, MCF-7. The class given is cell-based, human. Conditions: for Selectivity index (SI): folds toxic in MCF-7 than in normal VERO cells: CC50 VERO vs EC50 MCF-7; for EC50: Homo sapiens, MCF7, read-out: EC50 MCF-7.
In a further data set the test system is HCT116. Nature of the data set: MTT cytotoxicity assay, HCT116. The class given is cell-based, human. Conditions: for Selectivity index (SI): folds lethalness in HCT-116 than in VERO cells: CC50 VERO vs EC50 HCT-116; for EC50: Homo sapiens, HCT-116, read-out: EC50 HCT116.
For another data set, the target named is VEGFR-2 (Homo sapiens, UniProt P35968). Nature of the data set: In vitro VEGFR-2 kinase inhibitory assay. The class given is biochemical.
Chain of VEGFR-2 (P35968 20-1356): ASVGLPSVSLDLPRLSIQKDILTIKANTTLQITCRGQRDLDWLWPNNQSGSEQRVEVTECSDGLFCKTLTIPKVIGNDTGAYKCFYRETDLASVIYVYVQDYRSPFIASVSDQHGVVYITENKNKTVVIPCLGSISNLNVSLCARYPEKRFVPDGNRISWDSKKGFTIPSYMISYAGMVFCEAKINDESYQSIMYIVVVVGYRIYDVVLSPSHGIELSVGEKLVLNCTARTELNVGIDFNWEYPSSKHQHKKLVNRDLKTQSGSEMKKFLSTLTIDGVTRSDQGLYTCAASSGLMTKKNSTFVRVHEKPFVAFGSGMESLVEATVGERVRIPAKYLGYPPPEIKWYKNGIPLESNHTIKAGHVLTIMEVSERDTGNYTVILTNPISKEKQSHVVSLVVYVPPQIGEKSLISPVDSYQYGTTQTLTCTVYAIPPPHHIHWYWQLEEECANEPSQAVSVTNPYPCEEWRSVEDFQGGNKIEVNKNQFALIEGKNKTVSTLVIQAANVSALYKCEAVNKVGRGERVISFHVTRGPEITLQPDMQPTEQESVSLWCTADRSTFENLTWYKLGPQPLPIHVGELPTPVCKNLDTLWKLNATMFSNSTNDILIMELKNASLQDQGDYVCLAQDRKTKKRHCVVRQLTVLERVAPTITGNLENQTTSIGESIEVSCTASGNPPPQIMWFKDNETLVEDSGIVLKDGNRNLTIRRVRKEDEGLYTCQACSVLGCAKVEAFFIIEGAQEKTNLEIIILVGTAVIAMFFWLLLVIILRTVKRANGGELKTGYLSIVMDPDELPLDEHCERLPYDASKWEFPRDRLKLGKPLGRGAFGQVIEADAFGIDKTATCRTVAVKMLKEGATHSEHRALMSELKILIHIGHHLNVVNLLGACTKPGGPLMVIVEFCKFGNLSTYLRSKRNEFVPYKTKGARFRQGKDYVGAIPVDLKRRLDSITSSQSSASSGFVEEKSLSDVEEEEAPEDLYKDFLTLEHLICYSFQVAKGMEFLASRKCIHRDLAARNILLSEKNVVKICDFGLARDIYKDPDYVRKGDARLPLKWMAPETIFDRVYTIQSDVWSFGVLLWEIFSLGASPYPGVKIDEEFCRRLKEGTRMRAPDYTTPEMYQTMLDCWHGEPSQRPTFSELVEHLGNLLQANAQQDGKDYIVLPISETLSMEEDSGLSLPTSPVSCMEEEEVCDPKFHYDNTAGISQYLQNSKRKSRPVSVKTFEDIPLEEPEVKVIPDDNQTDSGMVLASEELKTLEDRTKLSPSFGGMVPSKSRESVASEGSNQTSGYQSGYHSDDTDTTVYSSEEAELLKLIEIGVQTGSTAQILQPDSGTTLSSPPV
Another data set has as its target EGFR^T790M (Homo sapiens, UniProt P00533, T790M). Nature of the data set: In vitro EGFR^T790M kinase inhibitory assay. The data set is classed as biochemical.
Data set [1] in a line: Cytotoxicity against VERO normal cell lines. The following applies: African green monkey, VERO normal cells.
The next data set deals with HepG2. Nature of the data set: MTT cytotoxicity assay, HepG2. The class given is cell-based, human. Conditions: for Selectivity index (SI): folds more toxic respecting HepG2 than normal VERO cells: CC50 VERO vs EC50 HepG2; for EC50: Homo sapiens, HepG2, read-out: EC50 HepG2.
Another data set relates to A549. Nature of the data set: MTT cytotoxicity assay, A549. The data set is classed as cell-based, human. Conditions: for Selectivity index (SI): folds toxicity in A549 than in VERO cells: CC50 VERO vs EC50 A549; for EC50: Homo sapiens, A549, read-out: EC50 A549.

Here are results for 2 compounds from publication PMC10716637 (RSC Advances, 2023).

Structures are written as SMILES.

Chain of EGFR^T790M (P00533 25-1210 T790M): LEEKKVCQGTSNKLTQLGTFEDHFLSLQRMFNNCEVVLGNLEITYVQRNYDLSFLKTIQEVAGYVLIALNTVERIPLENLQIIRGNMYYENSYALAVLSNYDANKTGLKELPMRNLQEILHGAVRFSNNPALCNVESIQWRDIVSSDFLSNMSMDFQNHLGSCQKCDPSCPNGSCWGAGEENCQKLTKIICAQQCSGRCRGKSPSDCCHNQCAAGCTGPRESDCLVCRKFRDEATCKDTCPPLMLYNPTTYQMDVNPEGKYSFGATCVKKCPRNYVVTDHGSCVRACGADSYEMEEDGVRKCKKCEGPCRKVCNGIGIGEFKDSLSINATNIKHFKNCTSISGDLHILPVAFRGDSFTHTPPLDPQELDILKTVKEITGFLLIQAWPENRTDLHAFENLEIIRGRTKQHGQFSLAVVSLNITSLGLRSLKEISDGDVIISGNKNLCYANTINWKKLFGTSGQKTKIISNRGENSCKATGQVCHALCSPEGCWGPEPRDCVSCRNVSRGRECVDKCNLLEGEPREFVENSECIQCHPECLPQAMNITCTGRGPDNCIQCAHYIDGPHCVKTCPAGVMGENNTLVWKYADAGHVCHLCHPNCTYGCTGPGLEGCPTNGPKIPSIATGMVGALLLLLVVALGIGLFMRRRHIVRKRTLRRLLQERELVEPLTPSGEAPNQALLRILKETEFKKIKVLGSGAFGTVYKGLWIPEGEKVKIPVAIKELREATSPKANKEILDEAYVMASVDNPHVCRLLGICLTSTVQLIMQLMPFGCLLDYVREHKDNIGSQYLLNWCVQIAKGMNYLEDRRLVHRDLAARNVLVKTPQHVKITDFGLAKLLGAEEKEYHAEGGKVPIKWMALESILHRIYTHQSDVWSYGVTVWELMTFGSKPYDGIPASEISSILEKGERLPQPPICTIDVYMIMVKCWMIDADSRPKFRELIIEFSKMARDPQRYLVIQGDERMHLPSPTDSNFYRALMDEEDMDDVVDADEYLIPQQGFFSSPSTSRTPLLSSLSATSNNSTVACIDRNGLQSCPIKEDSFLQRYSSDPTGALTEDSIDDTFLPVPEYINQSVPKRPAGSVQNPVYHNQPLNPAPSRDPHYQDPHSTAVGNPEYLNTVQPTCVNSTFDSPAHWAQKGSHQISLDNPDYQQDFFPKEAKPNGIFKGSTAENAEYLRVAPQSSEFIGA
Chain of EGFR^WT (P00533 25-1210): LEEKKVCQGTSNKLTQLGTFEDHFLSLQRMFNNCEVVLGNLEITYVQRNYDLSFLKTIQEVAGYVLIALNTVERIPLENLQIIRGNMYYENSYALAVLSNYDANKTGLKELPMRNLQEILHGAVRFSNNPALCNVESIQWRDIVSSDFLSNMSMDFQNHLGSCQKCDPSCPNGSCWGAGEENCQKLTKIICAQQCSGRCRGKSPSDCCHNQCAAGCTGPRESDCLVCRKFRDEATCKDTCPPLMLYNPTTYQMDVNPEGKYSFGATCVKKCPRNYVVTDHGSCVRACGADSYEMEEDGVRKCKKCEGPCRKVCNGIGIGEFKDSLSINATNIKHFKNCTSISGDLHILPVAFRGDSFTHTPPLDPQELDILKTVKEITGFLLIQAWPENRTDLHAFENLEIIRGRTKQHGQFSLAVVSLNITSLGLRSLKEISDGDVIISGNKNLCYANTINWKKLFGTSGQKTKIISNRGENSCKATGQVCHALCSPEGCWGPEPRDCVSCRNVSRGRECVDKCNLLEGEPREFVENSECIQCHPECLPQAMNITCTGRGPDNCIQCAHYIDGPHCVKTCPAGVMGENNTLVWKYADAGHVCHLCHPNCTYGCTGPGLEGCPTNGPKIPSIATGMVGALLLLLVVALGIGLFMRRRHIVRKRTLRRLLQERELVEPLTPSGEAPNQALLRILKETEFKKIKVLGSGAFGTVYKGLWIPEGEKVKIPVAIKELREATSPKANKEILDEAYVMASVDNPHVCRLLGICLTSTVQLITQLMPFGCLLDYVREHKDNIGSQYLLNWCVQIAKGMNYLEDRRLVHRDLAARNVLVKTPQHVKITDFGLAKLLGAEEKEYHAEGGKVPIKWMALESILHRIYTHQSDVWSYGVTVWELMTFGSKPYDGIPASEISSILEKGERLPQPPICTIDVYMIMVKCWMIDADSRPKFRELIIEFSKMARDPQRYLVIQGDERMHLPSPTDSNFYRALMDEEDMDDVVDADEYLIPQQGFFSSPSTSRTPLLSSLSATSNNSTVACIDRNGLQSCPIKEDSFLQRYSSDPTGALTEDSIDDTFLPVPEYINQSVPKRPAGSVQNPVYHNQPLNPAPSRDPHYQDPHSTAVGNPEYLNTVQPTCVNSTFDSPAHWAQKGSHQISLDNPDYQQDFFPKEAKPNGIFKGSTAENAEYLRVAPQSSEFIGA

With `CCCn1c(=O)n(CC(=O)Nc2ccc(C(=O)NN=Cc3ccccc3)cc2)c(=O)c2cc(I)ccc21` [Compound 9d, N-[4-(2-benzylidenehydrazine-1-carbonyl)phenyl]-2-[6-iodo-2,4-dioxo-1-propyl-1,4-dihydroquinazolin-3(2H)-yl]acetamide], the IC50 at EGFR^WT is 200 ± 30 nM; at VEGFR-2, 900 ± 100 nM; at EGFR^T790M it was 260 ± 300 nM. In the data set with MCF-7, the “Selectivity index (SI): folds toxic in MCF-7 than in normal VERO cells” value is reported as 7.81 folds. In addition, the EC50 with MCF-7 stood at 6.45 ± 0.5 µM; with HCT116, 6.5 ± 0.5 µM; with HepG2 it was 5.65 ± 0.5 µM; with A549, 5.48 ± 0.5 µM. Besides, the “Selectivity index (SI): folds lethalness in HCT-116 than in VERO cells” value with HCT116 amounted to 7.75 folds. This compound displayed a CC50 in data set [1] of 50.39 ± 0.5 µM. The “Selectivity index (SI): folds more toxic respecting HepG2 than normal VERO cells” value with HepG2 worked out at 8.92 folds. Moreover, in the data set with A549, the “Selectivity index (SI): folds toxicity in A549 than in VERO cells” value turned out to be 9.20 folds.

With `CCCn1c(=O)n(CC(=O)Nc2ccc(C(=O)NN=Cc3ccc(Cl)cc3)cc2)c(=O)c2cc(I)ccc21` [Compound 9e, N-{4-[2-(4-chlorobenzylidene)hydrazine-1-carbonyl]phenyl}-2-{6-iodo-2,4-dioxo-1-propyl-1,4-dihydroquinazolin-3(2H)-yl}acetamide], the IC50 at EGFR^WT was 250 ± 30 nM; against VEGFR-2, 1200 ± 100 nM; on EGFR^T790M, 300 ± 300 nM. In the data set with MCF-7, the “Selectivity index (SI): folds toxic in MCF-7 than in normal VERO cells” value was 6.30 folds. Also, the EC50 in the data set on MCF-7 worked out at 7.3 ± 0.7 µM; in the data set on HCT116, 6.7 ± 0.7 µM; in the data set on HepG2, 7.36 ± 0.7 µM; with A549, 6.3 ± 0.7 µM. Further, the “Selectivity index (SI): folds lethalness in HCT-116 than in VERO cells” value in the data set on HCT116 was 6.87 folds. In data set [1], this compound registered a CC50 of 46 ± 0.5 µM. In addition, the “Selectivity index (SI): folds more toxic respecting HepG2 than normal VERO cells” value in the data set on HepG2 amounted to 6.25 folds. Besides, the “Selectivity index (SI): folds toxicity in A549 than in VERO cells” value in the data set on A549 stood at 7.30 folds.
